# Where a name gives a salt, the structure may show the parent alone.
# Experiments:
# hIL-6 mRNA = test: Inhibition of hIL-6 mRNA transcription in LPS-stimulated U937 cells; type: cell-based; details: Homo sapiens, U-937; PMA-differentiated U937 cells, 1 h pretreatment, 1 ug/mL LPS stimulation, 3 h; read-out: IL-6 activity (Inhibition of hIL-6 mRNA Transcription)
# In short: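 U937 cells differentiated 3 days with 60 ng/mL PMA, pretreated 1 h with compound (0.1% DMSO), then stimulated with 1 ug/mL E. coli LPS for 3 h at 37 °C. hIL-6 mRNA measured by one-step TaqMan RT-qPCR, normalized to cyclophilin. Fold expression relative to control; triplicate wells.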
# c-myc = test: Inhibition of c-myc expression (mRNA, real-time PCR) in MV4-11 cells; type: cell-based; details: Human AML MV4-11 cells, 3 h, cMYC mRNA
# In short: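 MV4-11 cells treated 3 h at 37° C with increasing compound concentrations or 0.1% DMSO, in triplicate. cMYC mRNA quantified by one-step TaqMan real-time PCR, Ct normalized to internal control (Cyclophilin primers used), fold expression relative to control.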
# human AML MV-4-11 cells = test: Inhibition of cell proliferation in MV4-11 cells (CellTiter Aqueous One); type: cell-based; details: for IC50: MV4-11, 72 h
# In short: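 Exponentially growing MV-4-11 cells (5×10^4/well) were treated immediately with two-fold dilutions of compound from 30 μM to 0.2 μM, in triplicate, for 72 h at 37° C, 5% CO2. Viability was measured by MTS absorbance at 490 nm after 3–4 h. Proliferation relative to DMSO after blank correction gave IC50.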
# [1] = target: T1, Brd4 bromodomain 1 (BRD4(1)) (Homo sapiens, UniProt O60885); test: Inhibition of tetra-acetylated histone H4 binding to Brd4 bromodomain 1 (TR-FRET); details: tetra-acetylated histone H4 peptide, first bromodomain of Brd4
# T1 construct: made in house; host or cells: E. coli BL21(DE3)
# In short: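 His-tagged BRD4(1) from E. coli (200 nM) with biotinylated tetra-acetylated H4 peptide (25-50 nM), Eu-cryptate streptavidin and XL665 anti-His, in HEPES pH 7.4/phosphate/KF buffer, 0.2% DMSO. After 2 h at room temperature, TR-FRET 665/620 nm ratio read; IC50 from dose-response curves.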
IC50 (hIL-6 mRNA) [nM],IC50 (c-myc) [nM],IC50 (human AML MV-4-11 cells) [nM],IC50 [1] [nM],Structure (SMILES),Cell Proliferation activity (human AML MV-4-11 cells; 72 h)
≤ 300,≤ 300,300 to 3000,≤ 300,"Cc1noc(C)c1-c1cc(N)c2nc(C)n(CC3CCCC3)c2c1 [compound 133, 1-(cyclopentylmethyl)-6-(3,5-dimethylisoxazol-4-yl)-2-methyl-1H-benzo[d]imidazol-4-amine]",
≤ 300,300 to 3000,≤ 300,≤ 300,"Cc1noc(C)c1-c1cnc2nc(N3CCC3)n(CC3CCCC3)c2c1 [compound 209, 4-(2-(azetidin-1-yl)-1-(cyclopentylmethyl)-1H-imidazo[4,5-b]pyridin-6-yl)-3,5-dimethylisoxazole]",
300 to 3000,300 to 3000,300 to 3000,≤ 300,"Cc1noc(C)c1-c1cnc2c(N)cn(Cc3ccccc3)c2c1 [compound 100, 1-benzyl-6-(3,5-dimethylisoxazol-4-yl)-1H-pyrrolo[3,2-b]pyridin-3-amine]",
≤ 300,≤ 300,≤ 300,≤ 300,"Cc1noc(C)c1-c1cc(N)c2nc(NCc3cccnc3)n(Cc3ccccc3)c2c1 [compound 157, 1-benzyl-6-(3,5-dimethylisoxazol-4-yl)-N2-(pyridin-3-ylmethyl)-1H-benzo[d]imidazole-2,4-diamine]",
300 to 3000,300 to 3000,300 to 3000,≤ 300,"Cc1noc(C)c1-c1cnc2nc(C)n(Cc3ccc(Cl)s3)c2c1 [compound 77, 4-(1-((5-chlorothiophen-2-yl)methyl)-2-methyl-1H-imidazo[4,5-b]pyridin-6-yl)-3,5-dimethylisoxazole]",
300 to 3000,300 to 3000,300 to 3000,≤ 300,"CCNc1nc2ncc(-c3c(C)noc3C)cc2n1CC1CC1 [compound 131, 1-(cyclopropylmethyl)-6-(3,5-dimethylisoxazol-4-yl)-N-ethyl-1H-imidazo[4,5-b]pyridin-2-amine]",
≤ 300,≤ 300,≤ 300,≤ 300,"Cc1noc(C)c1-c1cc(N)c2nc(C)n([C@H](C)c3ccccc3)c2c1 [compound 144, (R)-6-(3,5-dimethylisoxazol-4-yl)-2-methyl-1-(1-phenylethyl)-1H-benzo[d]imidazol-4-amine]",
≤ 300,≤ 300,≤ 300,≤ 300,"Cc1noc(C)c1-c1cc(N)c2nc(N3CCOCC3)n(Cc3ccccc3)c2c1 [compound 87, 1-benzyl-6-(3,5-dimethylisoxazol-4-yl)-2-morpholino-1H-benzo[d]imidazol-4-amine]",
3000 to 30000,3000 to 30000,3000 to 30000,300 to 3000,"Cc1noc(C)c1-c1cnc2c(CN(C)C)cn(Cc3ccccc3)c2c1 [compound 72, 1-(1-benzyl-6-(3,5-dimethylisoxazol-4-yl)-1H-pyrrolo[3,2-b]pyridin-3-yl)-N,N-dimethylmethanamine]",
300 to 3000,3000 to 30000,3000 to 30000,300 to 3000,"Cc1noc(C)c1-c1cc(N)c2ccn(Cc3ccccc3)c2n1 [compound 73, 1-benzyl-6-(3,5-dimethylisoxazol-4-yl)-1H-pyrrolo[2,3-b]pyridin-4-amine]",
300 to 3000,300 to 3000,3000 to 30000,300 to 3000,"Cc1cnn(C)c1-c1cc(N)c2nc(C)n(Cc3ccccc3)c2c1 [compound 82, 1-benzyl-6-(1,4-dimethyl-1H-pyrazol-5-yl)-2-methyl-1H-benzo[d]imidazol-4-amine]",
300 to 3000,≤ 300,300 to 3000,≤ 300,"CCOc1nc2c(N)cc(-c3c(C)noc3C)cc2n1Cc1ccccc1 [Example Compound 17, 1-benzyl-6-(3,5-dimethylisoxazol-4-yl)-2-ethoxy-1H-benzo[d]imidazol-4-amine]",
300 to 3000,300 to 3000,3000 to 30000,300 to 3000,"Cc1ccc(Cn2c(C)nc3ncc(-c4c(C)noc4C)cc32)s1 [compound 76, 3,5-dimethyl-4-(2-methyl-1-((5-methylthiophen-2-yl)methyl)-1H-imidazo[4,5-b]pyridin-6-yl)isoxazole]",
≤ 300,≤ 300,≤ 300,≤ 300,"CNc1nc2c(N)cc(-c3c(C)noc3C)cc2n1Cc1ccccc1 [compound 151, 1-benzyl-6-(3,5-dimethylisoxazol-4-yl)-N2-methyl-1H-benzo[d]imidazole-2,4-diamine]",
300 to 3000,300 to 3000,300 to 3000,≤ 300,"COc1cc(-c2c(C)noc2C)cc2c1nc(C)n2Cc1ccccc1 [Example Compound 66, 4-(1-benzyl-4-methoxy-2-methyl-1H-benzo[d]imidazol-6-yl)-3,5-dimethylisoxazole]",
3000 to 30000,3000 to 30000,,300 to 3000,"Cc1noc(C)c1-c1cc2c(ccn2Cc2ccccc2)nc1OC=O [Example Compound 37, 1-benzyl-6-(3,5-dimethylisoxazol-4-yl)-1H-pyrrolo[3,2-b]pyridin-5-yl formate]",Not active
300 to 3000,≤ 300,300 to 3000,≤ 300,"Cc1noc(C)c1-c1cnc2nc(NC3CCOCC3)n(CC3CCC3)c2c1 [compound 223, 1-(cyclobutylmethyl)-6-(3,5-dimethylisoxazol-4-yl)-N-(tetrahydro-2H-pyran-4-yl)-1H-imidazo[4,5-b]pyridin-2-amine]",
≤ 300,≤ 300,≤ 300,≤ 300,"Cc1noc(C)c1-c1cc([N+](=O)[O-])c2nc(C)n(CC3CCCC3)c2c1 [compound 117, 4-(1-(cyclopentylmethyl)-2-methyl-4-nitro-1H-benzo[d]imidazol-6-yl)-3,5-dimethylisoxazole]",
≤ 300,≤ 300,≤ 300,≤ 300,"CCNc1nc2c(NC(C)=O)cc(-c3c(C)noc3C)cc2n1Cc1ccccc1 [compound 119, N-(1-benzyl-6-(3,5-dimethylisoxazol-4-yl)-2-(ethylamino)-1H-benzo[d]imidazol-4-yl)acetamide]",
≤ 300,≤ 300,≤ 300,≤ 300,"Cc1noc(C)c1-c1cc(N)c2nc(NC3CCOCC3)n(Cc3ccccc3)c2c1 [compound 109, 1-benzyl-6-(3,5-dimethylisoxazol-4-yl)-N2-(tetrahydro-2H-pyran-4-yl)-1H-benzo[d]imidazole-2,4-diamine]",
300 to 3000,300 to 3000,300 to 3000,≤ 300,"CNC(=O)c1nc2ncc(-c3c(C)noc3C)cc2n1Cc1ccccc1 [compound 221, 1-benzyl-6-(3,5-dimethylisoxazol-4-yl)-N-methyl-1H-imidazo[4,5-b]pyridine-2-carboxamide]",
300 to 3000,300 to 3000,300 to 3000,≤ 300,"COc1ccc(Cn2c(C)nc3ncc(-c4c(C)noc4C)cc32)cc1 [Example Compound 62, 4-(1-(4-methoxybenzyl)-2-methyl-1H-imidazo[4,5-b]pyridin-6-yl)-3,5-dimethylisoxazole]",
300 to 3000,3000 to 30000,3000 to 30000,≤ 300,"Cc1noc(C)c1-c1cnc2nc(C)n(Cc3ccc(C#N)s3)c2c1 [compound 78, 5-((6-(3,5-dimethylisoxazol-4-yl)-2-methyl-1H-imidazo[4,5-b]pyridin-1-yl)methyl)thiophene-2-carbonitrile]",
300 to 3000,300 to 3000,300 to 3000,≤ 300,"COc1ccc(Cn2c(=O)[nH]c3c([N+](=O)[O-])cc(-c4c(C)noc4C)cc32)cc1 [compound 103, 6-(3,5-dimethylisoxazol-4-yl)-1-(4-methoxybenzyl)-4-nitro-1H-benzo[d]imidazol-2(3H)-one]",
≤ 300,≤ 300,≤ 300,≤ 300,"Cc1noc(C)c1-c1cnc2nc(NCc3ccccc3)n(Cc3ccccc3)c2c1 [compound 153, N,1-dibenzyl-6-(3,5-dimethylisoxazol-4-yl)-1H-imidazo[4,5-b]pyridin-2-amine]",
300 to 3000,300 to 3000,300 to 3000,≤ 300,"Cc1noc(C)c1-c1cnc2c([N+](=O)[O-])cn(Cc3ccccc3)c2c1 [Example Compound 39, 4-(1-benzyl-3-nitro-1H-pyrrolo[3,2-b]pyridin-6-yl)-3,5-dimethylisoxazole]",
300 to 3000,300 to 3000,300 to 3000,≤ 300,"Cc1noc(C)c1-c1ccc2c(c1)N(Cc1ccccc1)C(=O)NC2 [Example Compound 12, 1-Benzyl-7-(3,5-dimethylisoxazol-4-yl)-3,4-dihydroquinazolin-2(1H)-one]",
